According to ChEMBL document CHEMBL1201862, “PubChem BioAssay data set” (2004):
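Briefly, cells in 96-well plates were exposed to five compound concentrations for 48 h, and endpoints were estimated by linear interpolation. GI50 = concentration required for 50% inhibition of growth.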 Active and inactive are the calls of the source. Cut-off read from the data, not from the text of the source: active = GI50 up to about 1.1 µM and inactive = higher.

Legend:
Experiment in all cases: growth of human tumour cells (NCI), 48 h
SK-OV-3 = test system: SK-OV-3
RXF 393 = test system: RXF 393
SF-295 = test system: SF-295
NCI-H226 = test system: NCI-H226
HCC 2998 = test system: HCC 2998
U-251 = test system: U-251
HCT-116 = test system: HCT-116
COLO 205 = test system: COLO 205
NCI-H460 = test system: NCI-H460
MDA-MB-231 = test system: MDA-MB-231
M14 = test system: M14
OVCAR-3 = test system: OVCAR-3
Hs-578T = test system: Hs-578T
UACC-62 = test system: UACC-62
RPMI-8226 = test system: RPMI-8226
OVCAR-8 = test system: OVCAR-8
SNB-75 = test system: SNB-75
SW-620 = test system: SW-620
IGROV-1 = test system: IGROV-1
SF-268 = test system: SF-268

| Compound | GI50 (SK-OV-3) | GI50 (RXF 393) | GI50 (SF-295) | GI50 (NCI-H226) | GI50 (HCC 2998) | GI50 (U-251) | GI50 (HCT-116) | GI50 (COLO 205) | GI50 (NCI-H460) | GI50 (MDA-MB-231) | GI50 (M14) | GI50 (OVCAR-3) | GI50 (Hs-578T) | GI50 (UACC-62) | GI50 (RPMI-8226) | GI50 (OVCAR-8) | GI50 (SNB-75) | GI50 (SW-620) | GI50 (IGROV-1) | GI50 (SF-268) |
| --- | --- | --- | --- | --- | --- | --- | --- | --- | --- | --- | --- | --- | --- | --- | --- | --- | --- | --- | --- | --- |
| C[C@@H](NC(=O)[C@@H]1C[C@]1(C)COC(=O)c1cc([N+](=O)[O-])cc([N+](=O)[O-])c1)c1cccc2ccccc12 | > 100 µM (inactive) | 12.6 µM (inactive) | 93.5 µM (inactive) | > 100 µM (inactive) | > 100 µM (inactive) | 99.3 µM (inactive) | > 100 µM (inactive) | > 100 µM (inactive) | > 100 µM (inactive) | > 100 µM (inactive) | > 100 µM (inactive) | 24.3 µM (inactive) | 20 µM (inactive) | 50 µM (inactive) | > 100 µM (inactive) | > 100 µM (inactive) | 37.1 µM (inactive) | > 100 µM (inactive) | 70.3 µM (inactive) | > 100 µM (inactive) |
| CN(C)CCNC(=O)c1ccc(NCCCN(C)CCCNc2ccc3c(=O)n(CCN(C)C)c(=O)n4c5ccccc5c(=O)c2c34)c2c(O)c3ccccc3nc12 | < 0.01 µM (active) | 0.075 µM (active) | < 0.01 µM (active) | < 0.0214 µM (active) | < 0.01 µM (active) | < 0.01 µM (active) | < 0.01 µM (active) | < 0.0108 µM (active) | < 0.01 µM (active) | < 0.027 µM (active) | 0.164 µM (active) | < 0.011 µM (active) | 0.0285 µM (active) | 0.0678 µM (active) | < 0.01 µM (active) | < 0.01 µM (active) | < 0.01 µM (active) | < 0.01 µM (active) | < 0.01 µM (active) | < 0.01 µM (active) |
| O=C1C(C(O)(C(F)(F)Cl)C(F)(F)Cl)CCC1C(O)(C(F)(F)Cl)C(F)(F)Cl (stereo not given) | 5.51 µM (inactive) | 5.05 µM (inactive) | 2.58 µM (inactive) | 3.6 µM (inactive) | 3.42 µM (inactive) | 4.4 µM (inactive) | 2.5 µM (inactive) | 4.17 µM (inactive) | > 10 µM (inactive) | 3.34 µM (inactive) | 7.78 µM (inactive) | 7.28 µM (inactive) | 1.9 µM (inactive) | 3.25 µM (inactive) | > 10 µM (inactive) | 3.94 µM (inactive) | 3.7 µM (inactive) | 4.15 µM (inactive) | 4.98 µM (inactive) | 3.57 µM (inactive) |
| O=CN1CCN(C(=O)c2cc(Cl)cc(Cl)c2)C1=S | 17.5 µM (inactive) | 16 µM (inactive) | 17.7 µM (inactive) | 14.7 µM (inactive) | 17.6 µM (inactive) | 17 µM (inactive) | 18.6 µM (inactive) | 17.1 µM (inactive) | 22.5 µM (inactive) | 15.6 µM (inactive) | 15.6 µM (inactive) | 14.8 µM (inactive) | 21 µM (inactive) | 15.8 µM (inactive) | 2.44 µM (inactive) | 19.1 µM (inactive) | 13.3 µM (inactive) | 19 µM (inactive) | 18.5 µM (inactive) | 16.1 µM (inactive) |
| O=C(O)c1nc(-c2ccccn2)c(-c2ccccn2)nc1C(=O)O | 3.77 µM (inactive) | 2.31 µM (inactive) | 2.49 µM (inactive) | 1.7 µM (inactive) | 0.773 µM (active) | 1.77 µM (inactive) | 1.67 µM (inactive) | 2.47 µM (inactive) | 0.719 µM (active) | 9.82 µM (inactive) | 1.42 µM (inactive) | 2.87 µM (inactive) | 19.1 µM (inactive) | 2.1 µM (inactive) | 2.86 µM (inactive) | 3.44 µM (inactive) | 3.49 µM (inactive) | 3.26 µM (inactive) | 3.5 µM (inactive) | 3.31 µM (inactive) |
| COc1ccc(Oc2cnn(C(Br)(Br)C(C)=O)c(=O)c2Br)cc1 | 24.3 µM (inactive) | 6.08 µM (inactive) | 18.2 µM (inactive) | 21.4 µM (inactive) | 16.8 µM (inactive) | 13.9 µM (inactive) | 7 µM (inactive) | 13.4 µM (inactive) | 18.8 µM (inactive) | 17.9 µM (inactive) | 13.9 µM (inactive) | 4.19 µM (inactive) | 26.1 µM (inactive) | 15.7 µM (inactive) | 3.14 µM (inactive) | 13.3 µM (inactive) | 15 µM (inactive) | 4.56 µM (inactive) | 18.5 µM (inactive) | 14.6 µM (inactive) |
| COc1ccc(OC)c(-c2cc(=O)c3c(OC)c(OC)c(OC)c(OC)c3o2)c1 | 22.8 µM (inactive) | 22 µM (inactive) | 18.7 µM (inactive) | 26.2 µM (inactive) | 28.6 µM (inactive) | 28.4 µM (inactive) | 27.6 µM (inactive) | 17.1 µM (inactive) | 25.4 µM (inactive) | 40.2 µM (inactive) | 36.1 µM (inactive) | 23 µM (inactive) | 37.6 µM (inactive) | 24.3 µM (inactive) | 21.5 µM (inactive) | 25.7 µM (inactive) | 46.8 µM (inactive) | 33 µM (inactive) | 29.9 µM (inactive) | 36 µM (inactive) |
| O=C(Nc1ccccc1)OCCN=c1c2ccccc2ccc2ccccc12 | 32.1 µM (inactive) | 23.8 µM (inactive) | 14 µM (inactive) | 32.1 µM (inactive) | 11.2 µM (inactive) | 25.9 µM (inactive) | 16.9 µM (inactive) | 21 µM (inactive) | 22.8 µM (inactive) | 24.9 µM (inactive) | 19.1 µM (inactive) | 17.5 µM (inactive) | 11.5 µM (inactive) | 15 µM (inactive) | 15.5 µM (inactive) | 26.5 µM (inactive) | 26 µM (inactive) | 31.9 µM (inactive) | 27.9 µM (inactive) | 34.8 µM (inactive) |
| CC(C)OC(=O)c1ccc(CCc2cc(O)c(Br)cc2O)cc1 | 16.6 µM (inactive) | 15 µM (inactive) | 17.3 µM (inactive) | 18.7 µM (inactive) | 16.1 µM (inactive) | 7.48 µM (inactive) | 11.5 µM (inactive) | 15.2 µM (inactive) | 18.6 µM (inactive) | 12 µM (inactive) | 15.6 µM (inactive) | 8.11 µM (inactive) | 14.6 µM (inactive) | 20.2 µM (inactive) | 2.72 µM (inactive) | 13.9 µM (inactive) | 21 µM (inactive) | 8.65 µM (inactive) | 9.2 µM (inactive) | 10.1 µM (inactive) |
| Cn1c(=O)c2nc(CCCCc3nc4ccccc4[nH]3)[nH]c2n(C)c1=O | > 100 µM (inactive) | > 100 µM (inactive) | > 100 µM (inactive) | 78.3 µM (inactive) | > 100 µM (inactive) | > 100 µM (inactive) | > 100 µM (inactive) | > 100 µM (inactive) | > 100 µM (inactive) | > 100 µM (inactive) | > 100 µM (inactive) | > 100 µM (inactive) | 30.3 µM (inactive) | > 100 µM (inactive) | > 100 µM (inactive) | > 100 µM (inactive) | 30.1 µM (inactive) | > 100 µM (inactive) | > 100 µM (inactive) | > 100 µM (inactive) |
| CC(=O)N1N=C(c2ccc3ccccc3c2O)CC1c1ccc(N(C)C)cc1 (stereo not given) | > 100 µM (inactive) | > 100 µM (inactive) | > 100 µM (inactive) | > 100 µM (inactive) | > 100 µM (inactive) | > 100 µM (inactive) | > 100 µM (inactive) | > 100 µM (inactive) | > 100 µM (inactive) | > 100 µM (inactive) | > 100 µM (inactive) | > 100 µM (inactive) | > 100 µM (inactive) | > 100 µM (inactive) | > 100 µM (inactive) | > 100 µM (inactive) | > 100 µM (inactive) | > 100 µM (inactive) | > 100 µM (inactive) | > 100 µM (inactive) |
| CC(C)(C)OC(=O)/C=C/C(=O)O/C=C/[N+](=O)[O-] | > 100 µM (inactive) | > 100 µM (inactive) | > 100 µM (inactive) | > 100 µM (inactive) | > 100 µM (inactive) | > 100 µM (inactive) | > 100 µM (inactive) | > 100 µM (inactive) | > 100 µM (inactive) | > 100 µM (inactive) | > 100 µM (inactive) | > 100 µM (inactive) | > 100 µM (inactive) | > 100 µM (inactive) | > 100 µM (inactive) | > 100 µM (inactive) | > 100 µM (inactive) | > 100 µM (inactive) | > 100 µM (inactive) | > 100 µM (inactive) |
| Cc1cc(O)c2c(c1)C(C1c3cccc(O)c3C(=O)c3c(O)cc(C)cc31)c1cccc(O)c1C2=O (stereo not given) | 0.356 µM (active) | 0.22 µM (active) | 0.286 µM (active) | 0.605 µM (active) | 1.1 µM (active) | 0.31 µM (active) | 0.314 µM (active) | 0.177 µM (active) | 0.198 µM (active) | 0.405 µM (active) | 0.327 µM (active) | 0.25 µM (active) | 0.175 µM (active) | 0.269 µM (active) | 0.158 µM (active) | 0.335 µM (active) | 0.243 µM (active) | 0.448 µM (active) | 0.378 µM (active) | 0.311 µM (active) |
| Cc1cn(CCCCOC(=O)NC(CCCNC(=N)N)C(=O)O)c(=O)[nH]c1=O (stereo not given) | > 100 µM (inactive) | > 100 µM (inactive) | > 100 µM (inactive) | > 100 µM (inactive) | > 100 µM (inactive) | > 100 µM (inactive) | > 100 µM (inactive) | > 100 µM (inactive) | > 100 µM (inactive) | > 100 µM (inactive) | > 100 µM (inactive) | > 100 µM (inactive) | > 100 µM (inactive) | > 100 µM (inactive) | > 100 µM (inactive) | > 100 µM (inactive) | > 100 µM (inactive) | > 100 µM (inactive) | > 100 µM (inactive) | > 100 µM (inactive) |
